Ki data for 31 compounds are collected here from US9469615B2, “Quinoxalines and AZA-quinoxalines as CRTH2 receptor modulators” (Merck Sharp & Dohme Corp., priority 2010, dated 2016).

For this test, the target named is T1, hCRTH2 (Homo sapiens, UniProt Q9Y5Y4).
T1 construct: expressed in transfected cells; host or cells: HEK (human embryonic kidney) cells expressing hCRTH2; membrane preparation
T1 sequence (Q9Y5Y4 1-395): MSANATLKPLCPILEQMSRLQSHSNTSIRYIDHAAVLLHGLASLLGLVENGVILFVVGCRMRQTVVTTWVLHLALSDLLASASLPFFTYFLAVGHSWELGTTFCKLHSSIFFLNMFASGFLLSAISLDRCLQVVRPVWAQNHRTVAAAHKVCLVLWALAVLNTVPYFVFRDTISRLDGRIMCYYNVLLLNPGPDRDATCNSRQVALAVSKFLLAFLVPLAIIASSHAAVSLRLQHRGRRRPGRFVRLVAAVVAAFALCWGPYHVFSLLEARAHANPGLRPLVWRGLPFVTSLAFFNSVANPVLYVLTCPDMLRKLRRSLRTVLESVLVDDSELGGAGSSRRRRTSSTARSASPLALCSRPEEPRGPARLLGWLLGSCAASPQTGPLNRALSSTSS
Nature of the test: Radioligand binding assay ([3H]PGD2 competition, HEK-hCRTH2 membranes). Summed up: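 HEK-hCRTH2 membranes, 8-20 μg; [3H]PGD2 3.0 nM; 50 mM Tris-HCl pH 7.4/1 mM EDTA/2 mM MnCl2; DMSO 1%; 60 min RT; NSB 10 μM PGD2; filtration, scintillation counting.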

In turn, `C[C@H](NC(=O)c1ccc2nc(-c3ccc(Cl)cc3)c(CCCCC(=O)O)nc2c1)c1ccc(F)cn1` [compound 435, (S)-5-(3-(4-chlorophenyl)-7-((1-(5-fluoropyridin-2-yl)ethyl)carbamoyl)quinoxalin-2-yl)pentanoic acid] yielded a Ki ([3H]PGD2 competition, Table B) of 0.1 to 2 nM.

For `O=C(O)CCCCc1nc2cc(C(=O)N3CCn4c(nnc4C(F)(F)F)C3)ccc2nc1-c1ccc(Cl)cc1` [compound 436, 5-(3-(4-chlorophenyl)-7-(3-(trifluoromethyl)-5,6,7,8-tetrahydro-[1,2,4]triazolo[4,3-a]pyrazine-7-carbonyl)quinoxalin-2-yl)pentanoic acid], the Ki ([3H]PGD2 competition, Table B) is 20.1 to 200 nM.

For `C[C@H](CCc1nc2cc(C(=O)N[C@H](C)c3ccc(F)cc3)ccc2nc1-c1ccc(F)cc1)CC(=O)O` [compound 437, (R)-5-(3-(4-fluorophenyl)-7-(((R)-1-(4-fluorophenyl)ethyl)carbamoyl)quinoxalin-2-yl)-3-methylpentanoic acid], for the setting “[3H]PGD2 competition, Table B”, the Ki lay in the range of 20.1 to 200 nM.

With `C[C@@H](CCc1nc2cc(C(=O)N[C@H](C)c3ccc(F)cc3)ccc2nc1-c1ccc(F)cc1)CC(=O)O` [compound 438, (S)-5-(3-(4-fluorophenyl)-7-(((R)-1-(4-fluorophenyl)ethyl)carbamoyl)quinoxalin-2-yl)-3-methylpentanoic acid], the Ki by setting is: ([3H]PGD2 binding, values in text) 4.2 nM; ([3H]PGD2 competition, Table B) 2.1 to 20 nM.

Consider `C[C@H](CCc1nc2cc(C(=O)N[C@@H]3CCCc4ccccc43)ccc2nc1-c1ccc(F)cc1)CC(=O)O` [compound 439, (R)-5-(3-(4-fluorophenyl)-7-(((R)-1,2,3,4-tetrahydronaphthalen-1-yl)carbamoyl)quinoxalin-2-yl)-3-methylpentanoic acid], for which, under “[3H]PGD2 competition, Table B”, the inhibition constant (Ki) fell in the range of 2.1 to 20 nM.

`C[C@@H](CCc1nc2cc(C(=O)N[C@@H]3CCCc4ccccc43)ccc2nc1-c1ccc(F)cc1)CC(=O)O` [compound 440, (S)-5-(3-(4-fluorophenyl)-7-(((R)-1,2,3,4-tetrahydronaphthalen-1-yl)carbamoyl)quinoxalin-2-yl)-3-methylpentanoic acid]: under “[3H]PGD2 competition, Table B”, the Ki lay in the range of 0.1 to 2 nM.

Under “[3H]PGD2 competition, Table B”, `C[C@H](CCc1nc2cc(C(=O)N[C@H](C)c3ccc(F)cc3)ccc2nc1-c1ccc(Cl)cc1)CC(=O)O` [compound 441, (R)-5-(3-(4-chlorophenyl)-7-(((R)-1-(4-fluorophenyl)ethyl)carbamoyl)quinoxalin-2-yl)-3-methylpentanoic acid] gave a Ki of 2.1 to 20 nM.

`C[C@@H](CCc1nc2cc(C(=O)N[C@H](C)c3ccc(F)cc3)ccc2nc1-c1ccc(Cl)cc1)CC(=O)O` [compound 442] returned a Ki ([3H]PGD2 competition, Table B) of 0.1 to 2 nM.

`O=C(NCc1ccccc1)c1ccc2nc(-c3ccc(F)cc3)c(CCCC(F)(F)C(=O)O)nc2c1` [compound 443, 5-(7-(benzylcarbamoyl)-3-(4-fluorophenyl)quinoxalin-2-yl)-2,2-difluoropentanoic acid] showed a Ki ([3H]PGD2 competition, Table B) of 2.1 to 20 nM.

`Cc1ccc(CNC(=O)c2ccc3nc(-c4ccccc4)c(CCCC(F)(F)C(=O)O)nc3c2)cc1` [compound 444] had a Ki ([3H]PGD2 competition, Table B) of 20.1 to 200 nM.

Where the note is “[3H]PGD2 competition, Table B”, `O=C(O)Cc1cc(F)cc(CCc2nc3cc(C(=O)N4CCN(c5ccccc5)CC4)ccc3nc2-c2ccc(Cl)cc2)c1` [compound 445] yielded a Ki of 2.1 to 20 nM.

`O=C(O)Cc1cc(F)cc(CCc2nc3cc(C(=O)NCc4ccc(Cl)cc4)ccc3nc2-c2ccc(Cl)cc2)c1` [compound 446] displayed a Ki ([3H]PGD2 competition, Table B) of 2.1 to 20 nM.

In the case of `CN(Cc1ccc(F)cc1)C(=O)c1ccc2nc(-c3ccc(Cl)cc3)c(CCc3cc(F)cc(CC(=O)O)c3)nc2c1` [compound 447, 2-(3-(2-(3-(4-chlorophenyl)-7-((4-fluorobenzyl)(methyl)carbamoyl)quinoxalin-2-yl)ethyl)-5-fluorophenyl)acetic acid], the inhibition constant (Ki) ([3H]PGD2 competition, Table B) is 0.1 to 2 nM.

Where the note is “[3H]PGD2 competition, Table B”, `CN(Cc1ccccc1)C(=O)c1ccc2nc(-c3ccc(Cl)cc3)c(CCc3cc(F)cc(CC(=O)O)c3)nc2c1` [compound 448, 2-(3-(2-(7-(benzyl(methyl)carbamoyl)-3-(4-chlorophenyl)quinoxalin-2-yl)ethyl)-5-fluorophenyl) acetic acid] had a Ki of 0.1 to 2 nM.

For the compound `C[C@@H](NC(=O)c1ccc2nc(-c3ccc(Cl)cc3)c(CCc3cc(F)cc(CC(=O)O)c3)nc2c1)c1ccc(F)cc1` [compound 449], where the note is “[3H]PGD2 competition, Table B”, the Ki fell in the range of 2.1 to 20 nM.

`C[C@H](NC(=O)c1ccc2nc(-c3ccc(Cl)cc3)c(CCc3cc(F)cc(CC(=O)O)c3)nc2c1)c1ccc(F)cc1` [compound 450, (S)-2-(3-(2-(3-(4-chlorophenyl)-7-((1-(4-fluorophenyl)ethyl)carbamoyl)quinoxalin-2-yl)ethyl)-5-fluorophenyl)acetic acid] had a Ki ([3H]PGD2 competition, Table B) of 2.1 to 20 nM.

Compound `N#Cc1ccc(CNC(=O)c2ccc3nc(-c4ccc(Cl)cc4)c(CCc4cc(F)cc(CC(=O)O)c4)nc3c2)cc1` [compound 451, 2-(3-(2-(3-(4-chlorophenyl)-7-((4-cyanobenzyl)carbamoyl)quinoxalin-2-yl)ethyl)-5-fluorophenyl)acetio acid] displayed a Ki ([3H]PGD2 competition, Table B) of 2.1 to 20 nM.

In turn, `O=C(O)Cc1cc(F)cc(CCc2nc3cc(C(=O)N4CC(c5ccc(F)c(F)c5)C4)ccc3nc2-c2ccc(Cl)cc2)c1` [compound 452, 2-(3-(2-(3-(4-chlorophenyl)-7-(3-(3,4-difluorophenyl)azetidine-l-carbonyl)quinoxalin-2-yl)ethyl)-5-fluorophenyl) aceticacid] gave a Ki ([3H]PGD2 competition, Table B) of 2.1 to 20 nM.

In turn, `CC(CCCc1nc2cc(C(=O)N[C@@H]3CCCc4ccccc43)ccc2nc1-c1ccccc1)C(=O)O` (stereo partly drawn) [compound 453, 2-methyl-5-(3-phenyl-7-(((R)-1-yl)carbamoyl)quinoxalin-2-yl)pentanoic acid] displayed a Ki ([3H]PGD2 competition, Table B) of 2.1 to 20 nM.

Under “[3H]PGD2 competition, Table B”, `CC(CCCc1nc2cc(C(=O)N[C@@H]3CCCc4ccccc43)ccc2nc1-c1ccc(F)cc1)C(=O)O` (some centres unmarked) [compound 454] had a Ki of 2.1 to 20 nM.

Under “[3H]PGD2 competition, Table B”, `CC(CCCc1nc2cc(C(=O)N[C@@H]3CCCc4cc(Cl)ccc43)ccc2nc1-c1ccc(F)cc1)C(=O)O` (stereo partly drawn) [compound 455, 5-(7-(((R)-6-chloro-1,2,3,4-tetrahydronaphthalen-1-yl)carbamoyl)-3-(4-fluorophenyl)quinoxalin-2-yl)-2-methylpentanoic acid] had a Ki of 2.1 to 20 nM.

Regarding `CC(CCCc1nc2cc(C(=O)N[C@@H]3CCc4cc(Cl)ccc43)ccc2nc1-c1ccc(F)cc1)C(=O)O` (stereo partly drawn) [compound 456, 5-(7-(((R)-5-chloro-2,3-dihydro-1H-inden-1-yl)carbamoyl)-3-(4-fluorophenyl)quinoxalin-2-yl)-2-methylpentanoic acid], the inhibitory constant (Ki) ([3H]PGD2 competition, Table B) fell in the range of 2.1 to 20 nM.

As to `CC(CCCc1nc2cc(C(=O)N[C@@H]3CCc4cc(F)ccc43)ccc2nc1-c1ccc(F)cc1)C(=O)O` (stereo partly drawn) [compound 457, 5-(7-(((R)-5-fluoro-2,3-dihydro-1H-inden-1-yl)carbamoyl)-3-(4-fluorophenyl)quinoxalin-2-yl)-2-methylpentanoic acid], the Ki ([3H]PGD2 competition, Table B) is 0.1 to 2 nM.

`CC(CCCc1nc2cc(C(=O)N[C@@H]3CCCc4cc(Cl)ccc43)ccc2nc1-c1ccccc1)C(=O)O` (stereo partly drawn) [compound 458, 5-(7-(((R)-6-chloro-1,2,3,4-tetrahydronaphthalen-1-yl)carbamoyl)-3-phenylquinoxalin-2-yl)-2-methylpentanoic acid]: the Ki ([3H]PGD2 competition, Table B) fell in the range of 2.1 to 20 nM.

For the setting “[3H]PGD2 competition, Table B”, `CC(CCCc1nc2cc(C(=O)N[C@@H]3CCCc4cc(F)ccc43)ccc2nc1-c1ccccc1)C(=O)O` (stereo partly drawn) [compound 459, 5-(7-(((R)-6-fluoro-1,2,3,4-tetrahydronaphthalen-1-yl)carbamoyl)-3-phenylquinoxalin-2-yl)-2-methylpentanoic acid] returned a Ki of 2.1 to 20 nM.

Where the note is “[3H]PGD2 competition, Table B”, `CC(CCCc1nc2cc(C(=O)N[C@H](C)c3ccc(Cl)cc3)ccc2nc1-c1ccccc1)C(=O)O` (stereo partly drawn) [compound 460, 5-(7-(((R)-1-(4-chlorophenyl)ethyl)carbamoyl)-3-3-phenylquinoxalin-2-yl)-2-methylpentanoic acid] registered a Ki of 2.1 to 20 nM.

Compound `CC(CCCc1nc2cc(C(=O)N[C@H](C)c3ccc(F)cc3)ccc2nc1-c1ccccc1)C(=O)O` (stereo partly drawn) [compound 461, 5-(7-(((R)-1-(4-fluorophenyl)ethyl)carbamoyl)-3-phenylquinoxalin-2-yl)-2-methylpentanoic acid] showed a Ki ([3H]PGD2 competition, Table B) of 2.1 to 20 nM.

In turn, `CC(CCCc1nc2cc(C(=O)N3CCN(c4ccccc4)CC3)ccc2nc1-c1ccccc1)C(=O)O` (centres unmarked) [compound 462, 2-methyl-5-(3-phenyl-7-(4-phenylpiperazine-1-carbonyl)quinoxalin-2-yl)pentanoic acid] came in with a Ki ([3H]PGD2 competition, Table B) of 2.1 to 20 nM.

With `CC(CCCc1nc2cc(C(=O)N[C@@H]3C[C@H]3c3ccccc3)ccc2nc1-c1ccccc1)C(=O)O` (stereo partly drawn) [compound 463, 2-methyl-5-(3-phenyl-7-(((1R,2S)-2-phenylcyclopropyl)carbamoyl)quinoxalin-2-yl) pentanoic acid], the Ki ([3H]PGD2 competition, Table B) lay within 2.1 to 20 nM.

Take `C[C@@H](NC(=O)c1ccc2nc(-c3ccccc3)c(CCCC(F)(F)C(=O)O)nc2c1)c1ccc(Cl)cc1` [compound 464, (R)-5-(7-((1-(4-chlorophenyl)ethyl)carbamoyl)-3-phenylquinoxalin-2-yl)-2,2-difluoropentanoic acid]: for the setting “[3H]PGD2 competition, Table B”, the Ki was 20.1 to 200 nM.

`O=C(N[C@@H]1CCCc2cc(F)ccc21)c1ccc2nc(-c3ccc(F)cc3)c(CCCC(F)(F)C(=O)O)nc2c1` [compound 465, (R)-2,2-difluoro-5-(7-((6-fluoro-1,2,3,4-tetrabydronaphthalen-1-yl)carbamoyl)-3-(4-fluorophenyl)quinoxalin-2-yl)pentanoic acid] registered a Ki ([3H]PGD2 competition, Table B) of 2.1 to 20 nM.
